Source: ChEMBL document CHEMBL4699661, “Synthesis and Biological Characterization of Cyclic Disulfide-Containing Peptide Analogs of the Multifunctional Opioid/Neuropeptide FF Receptor Agonists That Produce Long-Lasting and Nontolerant Antinociception” (J Med Chem, 2020)
pEC50: −log10 of the molar value. Calls of active or inactive are those of the source. The calls are words filed in the database; no cut-off is given here.

What was measured:
Mus musculus [1] = assay: Analgesic activity in Kunming mouse at 30 pmol, icv by radiant heat tail flick test; assay type: functional
[2] = target: T1, Neuropeptide FF receptor 2 (Homo sapiens, UniProt Q9Y5X5); assay: Agonist activity at NPFFR2 (unknown origin) expressed in HEK293-A cells assessed as inhibition of forskolin-stimulated cAMP accumulation incubated for 30 mins by competition PKA binding assay relative to control; assay type: functional, cell-based; settings: filed as agonist
[3] = Toxicity in Kunming mouse assessed as increase in total travelled distance at 0.09 umol/kg, sc by open field assay; assay type: organism-based; settings: in vivo, dose 0.09 µmol/kg
[4] = Toxicity in Kunming mouse assessed as activation of reward circuits at 0.09 umol/kg, sc by CPP test; assay type: organism-based; settings: in vivo, dose 0.09 µmol/kg
Mus musculus [5] = assay: Analgesic activity in icv dosed Kunming mouse assessed as time duration during which supraspinal antinociception lasted by radiant heat tail flick test; assay type: functional
[6] = Safety index, ratio of ED50 for induction of constipation in sc dosed Kunming mouse to ED50 for analgesic activity in sc dosed Kunming mouse; assay type: organism-based; settings: in vivo, read-out: Ratio ED50
[7] = Induction of constipation in sc dosed Kunming mouse assessed as inhibition of gastrointestinal motility by charcoal based gastrointestinal motility test; assay type: organism-based; settings: in vivo
Mus musculus [8] = assay: Analgesic activity in icv dosed Kunming mouse dosed once daily for 8 consecutive days by radiant heat tail flick test; assay type: functional, organism-based; settings: time 8.0 day
Mus musculus [9] = assay: Analgesic activity in sc dosed Kunming mouse dosed once daily for 8 consecutive days by radiant heat tail flick test; assay type: functional, organism-based; settings: time 8.0 day
[10] = Half life in 100% mouse plasma at 0.01 mM by RP-HPLC analysis; assay type: ADME, cell-free
[11] = target: Kappa-type opioid receptor (Homo sapiens, UniProt P41145); assay: Agonist activity at kappa opioid receptor (unknown origin) expressed in HEK293-A cells assessed as inhibition of forskolin-stimulated cAMP accumulation incubated for 30 mins by competition PKA binding assay; assay type: functional, cell-based; settings: read-out: EC50
Mus musculus [12] = assay: Analgesic activity in icv dosed Kunming mouse by radiant heat tail flick test; assay type: functional
Mu-type opioid receptor = Mu-type opioid receptor (Homo sapiens, UniProt P35372); assay: Agonist activity at mu opioid receptor (unknown origin) expressed in HEK293-A cells assessed as inhibition of forskolin-stimulated cAMP accumulation incubated for 30 mins by competition PKA binding assay; assay type: functional, cell-based
Mus musculus [13] = assay: Analgesic activity in sc dosed Kunming mouse by radiant heat tail flick test; assay type: functional
Mus musculus [14] = assay: Analgesic activity in Kunming mouse assessed as increase in antinociceptive effect at 0.03 pmol, icv pre-treated with 10 nmol, icv NPFF receptor antagonist RF9 by radiant heat tail flick test; assay type: functional, organism-based
[15] = target: T2, Neuropeptide FF receptor 1 (Homo sapiens, UniProt Q9GZQ6); assay: Agonist activity at NPFFR1 (unknown origin) expressed in HEK293-A cells assessed as inhibition of forskolin-stimulated cAMP accumulation incubated for 30 mins by competition PKA binding assay relative to control; assay type: functional, cell-based; settings: filed as agonist
[16] = target: T3, Delta-type opioid receptor (Homo sapiens, UniProt P41143); assay: Agonist activity at delta opioid receptor (unknown origin) expressed in HEK293-A cells assessed as inhibition of forskolin-stimulated cAMP accumulation incubated for 30 mins by competition PKA binding assay relative to control; assay type: functional, cell-based; settings: filed as agonist
Mus musculus [17] = assay: Analgesic activity in Kunming mouse at 0.09 umol/kg, sc by radiant heat tail flick test; assay type: functional; settings: dose 0.09 µmol/kg
[18] = target: T3, Delta-type opioid receptor; assay: Agonist activity at delta opioid receptor (unknown origin) expressed in HEK293-A cells assessed as inhibition of forskolin-stimulated cAMP accumulation incubated for 30 mins by competition PKA binding assay; assay type: functional, cell-based
Mus musculus [19] = assay: Analgesic activity in sc dosed Kunming mouse assessed as time duration during which antinociception lasted by radiant heat tail flick test; assay type: functional
[20] = Toxicity in Kunming mouse assessed as increase in jumping counts after naloxone-injection at 0.09 umol/kg, sc by naloxone-precipitated withdrawal test; assay type: organism-based; settings: in vivo, dose 0.09 µmol/kg
[21] = Half life in 15% mouse brain at 0.01 mM by RP-HPLC analysis; assay type: ADME, tissue-based
[22] = target: T1, Neuropeptide FF receptor 2; assay: Agonist activity at NPFFR2 (unknown origin) expressed in HEK293-A cells assessed as inhibition of forskolin-stimulated cAMP accumulation incubated for 30 mins by competition PKA binding assay; assay type: functional, cell-based
[23] = target: T2, Neuropeptide FF receptor 1; assay: Agonist activity at NPFFR1 (unknown origin) expressed in HEK293-A cells assessed as inhibition of forskolin-stimulated cAMP accumulation incubated for 30 mins by competition PKA binding assay; assay type: functional, cell-based
[24] = Toxicity in Kunming mouse assessed as effect on motor coordination at 30 pmol, icv by rotarod test; settings: in vivo, icv_or_intrathecal
[25] = Toxicity in Kunming mouse assessed as effect on motor coordination at 0.09 umol/kg, sc by rotarod test; assay type: organism-based; settings: in vivo, dose 0.09 µmol/kg
Mus musculus [26] = assay: Analgesic activity in Kunming mouse at 2.68 umol/kg, sc pre-treated with 1 mg/kg, sc peripherally restricted opioid receptor antagonist naloxone methiodide by radiant heat tail flick test; assay type: functional, organism-based; settings: dose 2.68 µmol/kg
Mus musculus [27] = assay: Analgesic activity in NPFF2 -/- C57BL/6 mouse at 0.89 umol/kg, sc by radiant heat tail flick test relative to wild type mouse; assay type: functional, organism-based; settings: dose 0.89 µmol/kg
Mus musculus [28] = assay: Analgesic activity in Kunming mouse at 8.94 umol/kg, sc pre-treated with 1 mg/kg, sc opioid receptor antagonist naloxone by radiant heat tail flick test; assay type: functional, organism-based; settings: dose 8.94 µmol/kg
Mus musculus [29] = assay: Analgesic activity in Kunming mouse at 2.68 umol/kg, sc pre-treated with 5 nmol, icv peripherally restricted opioid receptor antagonist naloxone methiodide by radiant heat tail flick test; assay type: functional, organism-based; settings: dose 2.68 µmol/kg
Mus musculus [30] = assay: Analgesic activity in Kunming mouse at 8.94 umol/kg, sc pre-treated with 1 mg/kg, sc peripherally restricted opioid receptor antagonist naloxone methiodide by radiant heat tail flick test; assay type: functional, organism-based; settings: dose 8.94 µmol/kg
Mus musculus [31] = assay: Analgesic activity in Kunming mouse at 8.94 umol/kg, sc pre-treated with 5 nmol, icv peripherally restricted opioid receptor antagonist naloxone methiodide by radiant heat tail flick test; assay type: functional, organism-based; settings: dose 8.94 µmol/kg
Mus musculus [32] = assay: Analgesic activity in Kunming mouse at 2.68 umol/kg, sc pre-treated with 1 mg/kg, sc opioid receptor antagonist naloxone by radiant heat tail flick test; assay type: functional, organism-based; settings: dose 2.68 µmol/kg
Mus musculus [33] = assay: Analgesic activity in NPFF2 -/- C57BL/6 mouse at 0.09 umol/kg, sc by radiant heat tail flick test relative to wild type mouse; assay type: functional, organism-based; settings: dose 0.09 µmol/kg
[34] = Ratio of drug level in brain to plasma in mouse; assay type: ADME; settings: read-out: BPR
[35] = Ratio of drug level in brain to plasma in Kunming mouse brain at 1 mg/kg, iv after 5 to 240 mins by LC-MS/MS analysis; assay type: ADME, organism-based; settings: time 5-240 min, read-out: BPR
[36] = Drug level in Kunming mouse plasma at 1 mg/kg, iv after 5 to 240 mins by LC-MS/MS analysis; assay type: ADME, organism-based; settings: time 5-240 min
Mus musculus [37] = assay: Analgesic activity in Kunming mouse at 30 pmol, icv pre-treated with 10 nmol, icv opioid receptor antagonist beta-funaltrexamine by radiant heat tail flick test; assay type: functional, organism-based
[38] = Drug level in Kunming mouse brain at 1 mg/kg, iv after 5 to 240 mins by LC-MS/MS analysis; assay type: ADME, organism-based; settings: in vivo, time 5-240 min

Compound | MPE (Mus musculus [1]) | Emax [2] | Activity [3] | Activity [4] | Activity (Mus musculus [5]) | Time (Mus musculus [5]) | selectivity ratio [6] | Activity (Mus musculus [9]) | half-life at 10 µM [10] | pEC50 [11] | ED50 (Mus musculus [12]) | pEC50 (Mu-type opioid receptor) | ED50 (Mus musculus [13]) | Activity (Mus musculus [14]) | Emax [15] | Emax [16] | pEC50 [18] | Time (Mus musculus [19]) | pEC50 [22] | pEC50 [23] | further results
N=C(N)NCCC[C@H](NC(=O)[C@H](CCC(N)=O)NC(=O)[C@@H]1CCCN1C(=O)[C@H]1CSSC[C@@H](NC(=O)[C@@H](N)Cc2ccc(O)cc2)C(=O)NCC(=O)N[C@@H](Cc2ccccc2)C(=O)N1)C(=O)N[C@@H](Cc1ccccc1)C(N)=O | 90% | 74.6% | Non-Toxic | Toxic | Dose-dependent effect | 3 h | 35 | Active | 14.6 min | 5.61 | 0.001 pmol | 6.71 | 0.002 µmol/kg | Active | 75.6% | 63.6% | 6.70 | 4 h | 6.72 | 6.44 | Activity [7]: Dose-dependent effect; ED50 [7]: 0.07 µmol/kg; Activity (Mus musculus [8]): Active; Activity (Mus musculus [13]): Dose-dependent effect; Activity (Mus musculus [17]): 80%; Activity [20]: Non-Toxic; half-life at 10 µM [21]: 255 min; Activity [24]: Non-Toxic; Activity [25]: Non-Toxic
N=C(N)NCCC[C@H](NC(=O)[C@H](CCC(N)=O)NC(=O)[C@@H]1CCCN1C(=O)[C@H](CS)NC(=O)[C@H](Cc1ccccc1)NC(=O)CNC(=O)[C@@H](CS)NC(=O)[C@@H](N)Cc1ccc(O)cc1)C(=O)N[C@@H](Cc1ccccc1)C(N)=O | – | 46.6% | – | – | – | 3 h | – | Active | 27.9 min | 6.24 | 0.6 pmol | 6.66 | 0.13 µmol/kg | Active | 78.5% | 46.1% | 6.29 | 3 h | 6.27 | 7.76 | Activity (Mus musculus [26]): inactive; Activity (Mus musculus [27]): Active; Activity (Mus musculus [28]): inactive; Activity (Mus musculus [29]): Active; Activity (Mus musculus [30]): inactive; Activity (Mus musculus [31]): Active; Activity (Mus musculus [32]): inactive; Activity (Mus musculus [33]): Active
CN1CC[C@]23c4c5ccc(O)c4O[C@H]2[C@@H](O[C@@H]2O[C@H](C(=O)O)[C@@H](O)[C@H](O)[C@H]2O)C=C[C@H]3[C@H]1C5 [MORPHINE GLUCURONIDE] | – | – | – | – | – | – | – | – | – | – | – | – | – | – | – | – | – | – | – | – | Kp [34]: 0.05
N=C(N)NCCC[C@H](NC(=O)[C@H](CCC(N)=O)NC(=O)[C@@H]1CCCN1C(=O)[C@@H]1CSSC[C@@H](NC(=O)[C@@H](N)Cc2ccc(O)cc2)C(=O)NCC(=O)N[C@@H](Cc2ccccc2)C(=O)N1)C(=O)N[C@@H](Cc1ccccc1)C(N)=O | 90% | 53.3% | Non-Toxic | Non-Toxic | Dose-dependent effect | 3 h | 750 | Active | 53.6 min | 6.06 | 0.014 pmol | 7.37 | 0.003 µmol/kg | Active | 75.9% | 65.1% | 6.76 | 4 h | 7.72 | 8.12 | Kp [35]: 1.02; Activity [7]: Dose-dependent effect; ED50 [7]: 2.25 µmol/kg; Activity (Mus musculus [8]): Active; Activity (Mus musculus [13]): Dose-dependent effect; AUC [36]: 63 ng·h/mL; Activity (Mus musculus [17]): 80%; Activity [20]: Non-Toxic; half-life at 10 µM [21]: 173 min; Activity (Mus musculus [37]): inactive; Drug uptake [38]: 3.87 µg·min/g; Activity [24]: Non-Toxic; Activity [25]: Non-Toxic
CN1CC[C@]23c4c5ccc(O)c4O[C@H]2[C@@H](O)C=C[C@H]3[C@H]1C5 [MORPHINE] | – | – | – | – | – | – | – | – | – | – | – | – | – | – | – | – | – | – | – | – | Kp [34]: 0.74
